Data published in PMC10504751, “Chalcone/1,3,4-Oxadiazole/Benzimidazole hybrids as novel anti-proliferative agents inducing apoptosis and inhibiting EGFR & BRAFV^600E” (BMC Chemistry, 2023).
Where two headings read alike, the source gives them in different places.

Assays:
MDA-MB-468 = assay: NCI one-dose SRB anti-proliferative screen; assay type: cell-based; conditions: Homo sapiens, read-out: Cell growth inhibition %
Outline: (§1)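 Activity reflects a single-point exposure at 10 µM, with cell mass determined by a sulforhodamine B dye assay.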

SNB-19 = assay: NCI one-dose SRB anti-proliferative screen; assay type: cell-based; conditions: Homo sapiens, read-out: Cell growth inhibition %
Outline: as §1

SF-268 = assay: NCI one-dose SRB anti-proliferative screen; assay type: cell-based; conditions: Homo sapiens, read-out: Cell growth inhibition %
Outline: as §1

HS 578T = assay: NCI one-dose SRB anti-proliferative screen; assay type: cell-based; conditions: Homo sapiens, read-out: Cell growth inhibition %
Outline: as §1

SF-295 = assay: NCI one-dose SRB anti-proliferative screen; assay type: cell-based; conditions: Homo sapiens, read-out: Cell growth inhibition %
Outline: as §1

SNB-75 = assay: NCI one-dose SRB anti-proliferative screen; assay type: cell-based; conditions: Homo sapiens, read-out: Cell growth inhibition %
Outline: as §1

HT29 = assay: NCI one-dose SRB anti-proliferative screen; assay type: cell-based; conditions: Homo sapiens, HT-29, read-out: Cell growth inhibition %
Outline: as §1

RPMI-8226 = assay: NCI one-dose SRB anti-proliferative screen; assay type: cell-based; conditions: Homo sapiens, read-out: Cell growth inhibition %
Outline: as §1

HOP-92 = assay: NCI one-dose SRB anti-proliferative screen; assay type: cell-based; conditions: Homo sapiens, read-out: Cell growth inhibition %
Outline: as §1

CAKI-1 = assay: NCI one-dose SRB anti-proliferative screen; assay type: cell-based; conditions: Homo sapiens, read-out: Cell growth inhibition %
Outline: as §1

IGROV1 = assay: NCI one-dose SRB anti-proliferative screen; assay type: cell-based; conditions: Homo sapiens, IGROV-1, read-out: Cell growth inhibition %
Outline: as §1

NCI-H460 = assay: NCI one-dose SRB anti-proliferative screen; assay type: cell-based; conditions: Homo sapiens, read-out: Cell growth inhibition %
Outline: as §1

Panc-1 = assay: Propidium iodide anti-proliferative assay; assay type: cell-based; conditions: Homo sapiens, 48 h incubation, read-out: IC50 ± SEM Panc-1
Outline: (§2)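 Cells seeded at 3000-7500 cells/well and grown 24 h at 37 °C, then treated with compounds (10 µM in 0.1% DMSO, triplicate; IC50 runs at varied concentrations) for 48 h. PI added, plates frozen 24 h at -80 °C and thawed, fluorescence read at 530/620 nm; % cytotoxicity versus 0.1% DMSO control.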

HT-29 = assay: Propidium iodide anti-proliferative assay; assay type: cell-based; conditions: Homo sapiens, 48 h incubation, read-out: IC50 ± SEM HT-29
Outline: as §2

A-549 = assay: Propidium iodide anti-proliferative assay; assay type: cell-based; conditions: Homo sapiens, A549; 48 h incubation; read-out: IC50 ± SEM A-549
Outline: as §2

MCF-7 = assay: Propidium iodide anti-proliferative assay; assay type: cell-based; conditions: Homo sapiens, MCF7; 48 h incubation; read-out: IC50 ± SEM MCF-7
Outline: as §2

T-47D = assay: NCI one-dose SRB anti-proliferative screen; assay type: cell-based, human; conditions: Homo sapiens, T47D, read-out: Cell growth inhibition %
Outline: as §1

RXF 393 = assay: NCI one-dose SRB anti-proliferative screen; assay type: cell-based, human; conditions: Homo sapiens, read-out: Cell growth inhibition %
Outline: as §1

HCT-116 = assay: NCI one-dose SRB anti-proliferative screen; assay type: cell-based, human; conditions: Homo sapiens, read-out: Cell growth inhibition %
Outline: as §1

MOLT-4 = assay: NCI one-dose SRB anti-proliferative screen; assay type: cell-based, human; conditions: Homo sapiens, read-out: Cell growth inhibition %
Outline: as §1

K-562 = assay: NCI one-dose SRB anti-proliferative screen; assay type: cell-based, human; conditions: Homo sapiens, K562, read-out: Cell growth inhibition %
Outline: as §1

[1] = MDA-MB-468, Breast cancer, NCI one dose
[2] = SNB-19, CNS Cancer, NCI one dose
[3] = SF-268, CNS Cancer, NCI one dose
[4] = HS 578T, Breast cancer, NCI one dose
[5] = SF-295, CNS Cancer, NCI one dose
[6] = SNB-75, CNS Cancer, NCI one dose
[7] = HT29, Colon cancer, NCI one dose
[8] = RPMI-8226, Leukemia, NCI one dose
[9] = HOP-92, Non-Small Cell Lung Cancer, NCI one dose
[10] = CAKI-1, Renal cancer, NCI one dose
[11] = IGROV1, Ovarian Cancer, NCI one dose
[12] = NCI-H460, Non-Small Cell Lung Cancer, NCI one dose
[13] = T-47D, Breast cancer, NCI one dose
[14] = RXF 393, Renal cancer, NCI one dose
[15] = HCT-116, Colon cancer, NCI one dose
[16] = MDA-MB-468 (Breast Cancer), NCI one dose 10 µM
[17] = SNB-19 (CNS Cancer), NCI one dose 10 µM
[18] = SF-268 (CNS Cancer), NCI one dose 10 µM
[19] = HS 578T (Breast Cancer), NCI one dose 10 µM
[20] = SF-295 (CNS Cancer), NCI one dose 10 µM
[21] = SNB-75 (CNS Cancer), NCI one dose 10 µM
[22] = HT29 (Colon Cancer), NCI one dose 10 µM
[23] = RPMI-8226 (Leukemia), NCI one dose 10 µM
[24] = HOP-92 (Non-Small Cell Lung Cancer), NCI one dose 10 µM
[25] = CAKI-1 (Renal Cancer), NCI one dose 10 µM
[26] = IGROV1 (Ovarian Cancer), NCI one dose 10 µM
[27] = NCI-H460 (Non-Small Cell Lung Cancer), NCI one dose 10 µM
[28] = T-47D (Breast Cancer), NCI one dose 10 µM
[29] = RXF 393 (Renal Cancer), NCI one dose 10 µM
[30] = HCT-116 (Colon Cancer), NCI one dose 10 µM
[31] = MOLT-4 (Leukemia), NCI one dose 10 µM
[32] = K-562 (Leukemia), NCI one dose 10 µM

Compound	inhibition at 10 µM (MDA-MB-468; [1]) [%]	inhibition at 10 µM (SNB-19; [2]) [%]	inhibition at 10 µM (SF-268; [3]) [%]	inhibition at 10 µM (HS 578T; [4]) [%]	inhibition at 10 µM (SF-295; [5]) [%]	inhibition at 10 µM (SNB-75; [6]) [%]	inhibition at 10 µM (HT29; [7]) [%]	inhibition at 10 µM (RPMI-8226; [8]) [%]	inhibition at 10 µM (HOP-92; [9]) [%]	inhibition at 10 µM (CAKI-1; [10]) [%]	inhibition at 10 µM (IGROV1; [11]) [%]	inhibition at 10 µM (NCI-H460; [12]) [%]	IC50 (Panc-1) [µM]	IC50 (HT-29) [µM]	IC50 (A-549) [µM]	IC50 (MCF-7) [µM]	inhibition at 10 µM (T-47D; [13]) [%]	inhibition at 10 µM (RXF 393; [14]) [%]	inhibition at 10 µM (HCT-116; [15]) [%]	inhibition at 10 µM (MOLT-4; MOLT-4, Leukemia, NCI one dose) [%]	other results
O=C(CSc1nnc(-c2ccc3[nH]c(-c4ccccc4)nc3c2)o1)Nc1ccc(C(=O)/C=C/c2ccc(Cl)cc2)cc1 [Compound 7b, 2-{5-[2-Phenyl-1 H-benzo[d]imidazol-5-yl]-1,3,4-oxadiazol-2-ylthio}-N-{4-[(E)-3-(4-chlorophenyl)acryloyl]phenyl}acetamide]	0	3.92	0	0	0	0	0	12.2	0	1.52	15.3	0	8.4 ± 1	9.1 ± 1.1	8.2 ± 0.9	7.9 ± 0.8	12.3	0	8.66	6.55	inhibition at 10 µM (K-562; K-562, Leukemia, NCI one dose): 0%
COc1cc(-c2nc3cc(-c4nnc(SCC(=O)Nc5ccc(C(=O)/C=C/c6ccccc6)cc5)o4)ccc3[nH]2)cc(OC)c1OC [Compound 7u, 2-{5-[2-(3,4,5-Trimethoxyphenyl)-1 H-benzo[d]imidazol-5-yl]-1,3,4-oxadiazol-2-ylthio}-N-{4-[(E)-3-phenylacryloyl]phenyl}acetamide]	–	–	–	–	–	–	–	–	–	–	–	–	2.4 ± 0.2	2.7 ± 0.5	2.25 ± 0.5	2.1 ± 0.08	–	–	–	–	inhibition at 10 µM (MDA-MB-468; [16]): 0%; inhibition at 10 µM (SNB-19; [17]): 0%; inhibition at 10 µM (SF-268; [18]): 0%; inhibition at 10 µM (HS 578T; [19]): 9.37%; inhibition at 10 µM (SF-295; [20]): 2%; inhibition at 10 µM (SNB-75; [21]): 13.8%; inhibition at 10 µM (HT29; [22]): 0%; inhibition at 10 µM (RPMI-8226; [23]): 24.2%; inhibition at 10 µM (HOP-92; [24]): 9.74%; inhibition at 10 µM (CAKI-1; [25]): 0%; inhibition at 10 µM (IGROV1; [26]): 29%; inhibition at 10 µM (NCI-H460; [27]): 0%; inhibition at 10 µM (T-47D; [28]): 14.8%; inhibition at 10 µM (RXF 393; [29]): 0%; inhibition at 10 µM (HCT-116; [30]): 26.5%; inhibition at 10 µM (MOLT-4; [31]): 21.8%; inhibition at 10 µM (K-562; [32]): 14.9%
COc1ccc(/C=C/C(=O)c2ccc(NC(=O)CSc3nnc(-c4ccc5[nH]c(-c6ccccc6)nc5c4)o3)cc2)cc1OC [Compound 7d, 2-{5-[2-Phenyl-1 H-benzo[d]imidazol-5-yl]-1,3,4-oxadiazol-2-ylthio}-N-{4-[(E)-3-(3,4-dimethoxyphenyl)acryloyl]phenyl}acetamide]	0	3.18	0	0	0	0	0	14.7	0	0	0	0	10.3 ± 1.3	11.1 ± 1.4	9.7 ± 1.1	8.9 ± 1.1	2.51	0	6.47	7.24	inhibition at 10 µM (K-562; K-562, Leukemia, NCI one dose): 0%
O=C(CSc1nnc(-c2ccc3[nH]c(-c4ccccc4)nc3c2)o1)Nc1ccc(C(=O)/C=C/c2ccccc2)cc1 [Compound 7a, 2-{5-[2-Phenyl-1 H-benzo[d]imidazol-5-yl]-1,3,4-oxadiazol-2-ylthio}-N-{4-[(E)-3-phenylacryloyl]phenyl}acetamide]	0	0.06	0	0	0	0	0	5.75	0	0	4.17	0	10.4 ± 1.3	11.2 ± 1.4	9.9 ± 1.1	9.2 ± 1.1	1.45	0	3.03	6.84	inhibition at 10 µM (K-562; K-562, Leukemia, NCI one dose): 0%
COc1ccc(-c2nc3cc(-c4nnc(SCC(=O)Nc5ccc(C(=O)/C=C/c6ccccc6)cc5)o4)ccc3[nH]2)cc1OC [Compound 7p, 2-{5-[2-(3,4-Dimethoxyphenyl)-1 H-benzo[d]imidazol-5-yl]-1,3,4-oxadiazol-2-ylthio}-N-{4-[(E)-3-phenylacryloyl]phenyl}acetamide]	–	–	–	–	–	–	–	–	–	–	–	–	3.1 ± 0.4	3.3 ± 0.4	2.5 ± 0.5	2.1 ± 0.2	–	–	–	–	inhibition at 10 µM (MDA-MB-468; [16]): 0%; inhibition at 10 µM (SNB-19; [17]): 0%; inhibition at 10 µM (SF-268; [18]): 0%; inhibition at 10 µM (HS 578T; [19]): 3.94%; inhibition at 10 µM (SF-295; [20]): 5.09%; inhibition at 10 µM (SNB-75; [21]): 9.72%; inhibition at 10 µM (HT29; [22]): 0%; inhibition at 10 µM (RPMI-8226; [23]): 36%; inhibition at 10 µM (HOP-92; [24]): 1.64%; inhibition at 10 µM (CAKI-1; [25]): 2.96%; inhibition at 10 µM (IGROV1; [26]): 3.63%; inhibition at 10 µM (NCI-H460; [27]): 0%; inhibition at 10 µM (T-47D; [28]): 13.1%; inhibition at 10 µM (RXF 393; [29]): 0%; inhibition at 10 µM (HCT-116; [30]): 10.3%; inhibition at 10 µM (MOLT-4; [31]): 19.5%; inhibition at 10 µM (K-562; [32]): 8.36%
